From patent publication US7919465B2, “Peptide mimotopes that inhibits interaction between a platelet receptor and a platelet receptor ligand” (priority 2006, dated 2011)
Where two headings read alike, the source gives them in different places. Non-standard residues stand in square brackets, D forms with d. No end group written: not given here.

Legend:
fibrinogen = molecular target: T1, fibrinogen (Homo sapiens, UniProt P02671+P02675+P02679); experiment: Binding of D-amino acid-containing sequences to fibrinogen
T1 sequence (P02671 20-629 limits assumed): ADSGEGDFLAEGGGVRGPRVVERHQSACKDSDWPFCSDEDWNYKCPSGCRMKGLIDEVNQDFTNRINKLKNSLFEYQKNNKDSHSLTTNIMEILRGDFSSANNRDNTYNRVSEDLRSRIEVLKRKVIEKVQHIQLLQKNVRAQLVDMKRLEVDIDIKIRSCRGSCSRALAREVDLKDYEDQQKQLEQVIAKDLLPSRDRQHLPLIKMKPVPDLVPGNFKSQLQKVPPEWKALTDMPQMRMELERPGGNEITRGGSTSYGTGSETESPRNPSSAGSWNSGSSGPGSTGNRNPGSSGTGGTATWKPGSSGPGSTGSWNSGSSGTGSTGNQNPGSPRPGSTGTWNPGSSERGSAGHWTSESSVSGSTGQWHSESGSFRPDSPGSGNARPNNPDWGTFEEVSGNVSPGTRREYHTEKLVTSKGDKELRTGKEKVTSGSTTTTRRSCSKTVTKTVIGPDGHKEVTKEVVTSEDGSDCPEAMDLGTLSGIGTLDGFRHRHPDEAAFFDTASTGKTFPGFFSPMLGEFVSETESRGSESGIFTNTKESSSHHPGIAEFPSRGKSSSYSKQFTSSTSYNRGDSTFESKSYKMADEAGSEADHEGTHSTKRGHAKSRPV
T1 sequence (P02675 31-491): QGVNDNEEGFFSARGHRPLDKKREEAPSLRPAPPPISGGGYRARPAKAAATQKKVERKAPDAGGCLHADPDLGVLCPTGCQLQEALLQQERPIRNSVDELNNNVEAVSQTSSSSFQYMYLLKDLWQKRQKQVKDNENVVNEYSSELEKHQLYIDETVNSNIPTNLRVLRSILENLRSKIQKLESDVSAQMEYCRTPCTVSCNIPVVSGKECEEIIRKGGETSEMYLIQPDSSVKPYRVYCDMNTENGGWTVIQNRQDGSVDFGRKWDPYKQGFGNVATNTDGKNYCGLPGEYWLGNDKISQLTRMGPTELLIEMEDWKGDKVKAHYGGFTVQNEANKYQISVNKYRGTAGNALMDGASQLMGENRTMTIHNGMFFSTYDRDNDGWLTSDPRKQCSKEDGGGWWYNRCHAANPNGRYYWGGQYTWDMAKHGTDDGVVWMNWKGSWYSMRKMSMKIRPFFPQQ
T1 sequence (P02679 27-433 limits assumed): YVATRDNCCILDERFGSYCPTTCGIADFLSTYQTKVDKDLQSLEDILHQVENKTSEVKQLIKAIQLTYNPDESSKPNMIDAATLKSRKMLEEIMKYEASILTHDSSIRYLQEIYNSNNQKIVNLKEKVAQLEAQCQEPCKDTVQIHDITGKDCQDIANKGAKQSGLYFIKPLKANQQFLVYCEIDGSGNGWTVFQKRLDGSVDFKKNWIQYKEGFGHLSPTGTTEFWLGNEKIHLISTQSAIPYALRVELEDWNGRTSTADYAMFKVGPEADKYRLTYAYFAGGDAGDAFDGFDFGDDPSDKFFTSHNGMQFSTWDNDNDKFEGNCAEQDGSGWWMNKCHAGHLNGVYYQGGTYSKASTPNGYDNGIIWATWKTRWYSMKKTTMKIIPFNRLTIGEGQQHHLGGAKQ
Excerpt: These peptides can be used to pull/capture fibrinogen from a solution as well as to inhibit the interaction between fibrinogen and its cognate receptor(s).

GPIIbIIIa = experiment: Ristocetin-mediated GPIIbIIIa activation probed by PAC-1 antibody, flow cytometry; type: cell-based, human; conditions: at IC50 concentration, 60 minutes, PAC-1, p<0.05
Experimental: To show inhibition of the GPIb-vWf interaction in PRP, activation had to target the plasma component, specifically vWf, by ristocetin, rather than the consequences of platelet activators such as thrombin or ADP. Ristocetin mediated GPIb signaling was detected through GPIIbIIIa activation and flow cytometry. 5 μL resting PRP were incubated with […] (SEQ ID NO:8) or L100 at their respective IC50 concentrations for 60 minutes and 5 μL 4.2 mg/mL ristocetin was used to induce platelet activation. Consequent GPIIbIIIa activation was probed via a monoclonal FITC-conjugated PAC-1 antibody to the active conformation of GPIIbIIIa (BD, Canada).

GPIb-vWf interaction = molecular target: T2, GPIb-vWf interaction (Homo sapiens, UniProt P07359); experiment: Flow cytometry inhibition of vWf binding to ristocetin-activated platelets in PRP; type: cell-based
T2 construct: Platelet rich plasma (PRP) was prepared from whole blood by centrifugation; endogenous in cells
Experimental: (§1) In order to prepare human platelets for testing, as approved by Canadian Blood Services' Ethics Board, samples of whole blood were drawn from healthy, consenting donors into 2.7-4.0 mL citrated tubes (BD, USA). Platelet rich plasma (PRP) was prepared from whole blood by centrifugation in a Beckman (CS-6R) bench-top centrifuge (r=203.57 mm, Beckman Coulter, USA) 164×g for 15 minutes. PRP from a number of unrelated donors were evaluated on an Adiva 120 Hematology Analyzer (Bayer, Canada) and standardized to a concentration of 300×10^9 platelets/L in HEPES buffered saline (HBS, 10 mM HEPES, 150 mM NaCl, pH 7.4).
Thereafter the samples were diluted and fixed with 1.0 mL 0.2% formolsaline (0.2% formaldehyde, 150 mM NaCl, pH 7.20) before analysis on a FACS Canto flow cytometer (BD, USA).
The effect of native HPG, free peptides, and peptide-conjugated HPG on activated platelets using modifications of the above assay systems was also examined. Platelets were treated with either 5 μL 4.2 mg/mL ristocetin (Chrono-Log, USA) or 100 U thrombin (T6884, Sigma-Aldrich, Canada) with 5 μL GPRP fibrin inhibitor (G5779, Sigma-Aldrich, Canada) dissolved in HBS. […] Controls included incubation with mouse IgG-FITC/IgG-PE (Beckman-Coulter, Canada) of the same isotype, and/or omitting the conjugate.

platelets = experiment: Aggregometry, % aggregation on activation; type: cell-based, human; set-up: concentration or dose not given beside the values; conditions: ristocetin activation
Experimental: as §1
(§2) The effect of native HPG, free peptides, and peptide-conjugated HPG on activated platelets using modifications of the above assay systems was also examined. Platelets were treated with either 5 μL 4.2 mg/mL ristocetin (Chrono-Log, USA) or 100 U thrombin (T6884, Sigma-Aldrich, Canada) with 5 μL GPRP fibrin inhibitor (G5779, Sigma-Aldrich, Canada) dissolved in HBS. This was done to determine whether the peptides and the peptide-conjugates can mitigate vWf and thrombin mediated platelet effects. Controls included incubation with mouse IgG-FITC/IgG-PE (Beckman-Coulter, Canada) of the same isotype, and/or omitting the conjugate. As a result, native HPG, free peptides, and peptide-conjugated HPG neither did they increase vWf binding to resting platelets (Table 5) or they could trigger platelet activation.
The inhibition of platelet agglutination by vWf was observed both by light microscopy and lumiaggregometry (Table 5). No clumping was seen when resting platelets were incubated with free peptides, native HPG, or peptide-conjugated HPG.

[1] = test system: CD62/P-selectin on platelet surfaces; experiment: Flow cytometry of surface CD62 expression on platelets; type: cell-based, human; conditions: for Surface CD62 Expression, Activated Platelets: thrombin-activated platelets
Experimental: as §1
(§3) 40 μL aliquots of HBS were mixed with 5 μL PRP and 5 μL of the material to be tested: 500 kDa native HPG; free peptides; or peptide-conjugated HPG at 1.0×10^−3 M to 1.0×10^−9 M. After 40 minutes of incubation at ambient temperature, 5 μL 0.01 mg/mL FITC-conjugated polyclonal sheep anti-human vWf IgG (Abcam, USA) or 5 μL of 2 mg/mL PE-conjugated monoclonal mouse anti-human CD62 IgG (Beckman-Coulter, Canada) was added and incubation was continued in the dark for 30 min. Thereafter the samples were diluted and fixed with 1.0 mL 0.2% formolsaline (0.2% formaldehyde, 150 mM NaCl, pH 7.20) before analysis on a FACS Canto flow cytometer (BD, USA).
as §2, with “activation. […]” for “activation.”

[2] = test system: vWf binding to resting platelets; experiment: Flow cytometry of vWf binding to resting platelets; type: cell-based, human
Experimental: as §1, §3, §2

Row | Substance | ability to bind to fibrinogen (fibrinogen) | GPIIbIIIa activation upon ristocetin stimulation (GPIIbIIIa) | Surface CD62 Expression, Resting Platelets [1] | Surface CD62 Expression, Activated Platelets [1] | vWf Binding, Resting Platelets [2] | other results
1 | FRIYYVYTTSQQDSC ([dF][dR][dI][dY][dY][dV][dY][dT][dT][dS][dQ][dQ][dD][dS][dC]) | bind to fibrinogen |  |  |  |  | 
2 | SMTSMCYLIGAPKYK (also: D-amino acids, places not given here) | bind to fibrinogen |  |  |  |  | 
3 | KYQCYAPAHPSYVNY (also: D-amino acids, places not given here) | bind to fibrinogen |  |  |  |  | 
4 | FKWSWEWQGQEAYYD ([dF][dK][dW][dS][dW][dE][dW][dQ]G[dQ][dE][dA][dY][dY][dD]) | bind to fibrinogen |  |  |  |  | 
5 | CGGGGGGSHAYIGLKDR [L-pep] |  | significantly attenuated | 18 ± 1 | 72 ± 8″ | 24 ± 4′ | IC50 (GPIb-vWf interaction): 48 µM; Aggregometry % Aggregation on Activation (platelets): 5 ± 5%
6 | L100: HPG 500 kDa conjugate with about 100 L-peptides per HPG molecule (CGGGGGGSHAYIGLKDR; also: conjugated to HPG 500 kDa, about 100 L-peptides per HPG molecule, site not given here) |  | significantly attenuated | 20 ± 3 | 71 ± 5″ | 23 ± 2′ | inhibition of vWf binding to platelets (in words) (GPIb-vWf interaction): effective inhibitors; IC50 (GPIb-vWf interaction; expressed as peptide concentration, read-out: Peptide Concentration at Ic50): 210 µM; IC50 (GPIb-vWf interaction; inhibition of platelet-vWf binding, molar concentration of peptide or conjugate, read-out: Ic50): 1.1 µM
